{"source": "patent US9290544B2", "about": "“Methods for making and using molecular switches involving circular permutation” (priority 2004, dated 2016)", "key": {"[1]": {"assay": "Ampicillin hydrolysis by purified RG13, 25° C.", "format": "biochemical", "conditions": "50 μM ampicillin", "protocol": "(§1) All kinetic assays were performed at 25° C. in the presence of 100 mM sodium phosphate buffer, pH 7.0. Ten μl of enzyme stock was added to 1.59 ml buffer (containing the saccharide, if desired). After incubation for 30 seconds, 0.4 ml of 5× substrate was added and the absorbance at the appropriate wavelength was recorded using the Cary50 UV-VIS spectrophotometer. The wavelength monitored was 486 nm, 240 nm, and 232 nm for nitrocefin, carbenicillin, and ampicillin respectively. From the initial rate of reaction the kinetic constants were determined using Eadie-Hofstee plots. […] The rate data was consistent with a small hysteretic effect (Brennan et al. 1994) and not substrate inhibition as preincubation of the enzyme with the substrate for one minute prevented the lag from occurring upon addition of more substrate. Therefore, the steady state parameters for nitrocefin hydrolysis in the absence of maltose were determined by measuring the rate at 1-2 minutes (well after the lag) and correcting the substrate concentration by subtracting the amount of substrate hydrolyzed. In all cases the extent of reaction at the point the rate was measured was less than 25%. In the presence of maltose, no lag was observed."}, "[2]": {"assay": "Hydrolysis of benzylpenicillin by RG-200-13 with and without 5 mM maltose", "format": "biochemical", "conditions": "pH 7.0, 22° C.", "protocol": "(§2) A 6×His tag was added to the C-terminus of RG-200-13 (also termed “RG13” in Examples below) and the fusion was purified as previously described (Guntas and Ostermeier 2004). The protein was purified to approximately 60% purity. The kinetic constants and binding constants were determined from Eadie-Hofstee plots and Eadie plot equivalents, respectively, using a spectrophotometric assay for nitrocefin hydrolysis. Initial rates for nitrocefin hydrolysis were determined from absorbance at 486 nm monitored as a function of time. The enzyme was incubated at the assay temperature in the absence or presence of saccharide for four minutes prior to performing the assay. All assays contained 100 mM sodium phosphate buffer, pH 7.0. The dissociation constant for maltose was determined using change in velocity of nitrocefin hydrolysis as a signal.\n(§3) Maltose binding had the largest effect on cephalothin (of the substrates tested), with the velocity of cephalothin hydrolysis being 32-fold higher in the presence of maltose than in its absence."}, "[3]": {"assay": "Steady state kinetics of nitrocefin hydrolysis, purified RG13 proteins, 25° C.", "format": "biochemical", "protocol": "as §1"}, "[4]": {"assay": "Dissociation constant for maltose from initial rate of carbenicillin hydrolysis", "format": "binding", "conditions": "1.5 mM carbenicillin, 25° C., read-out: Kd maltose, Saturating Carbenicillin, Enzymatic assay"}, "[5]": {"assay": "Maltose affinity by intrinsic protein fluorescence", "format": "binding", "protocol": "Maltose affinity for RG13 (in presence and absence of 10 mM carbenicillin) and RG13(1329W) (in the absence of substrate) was determined using intrinsic protein fluorescence measured on a Photon Technology QuantaMaster QM-4 spectrofluorometer. Fluorescence spectra were obtained at 25° C. at different concentrations of maltose in 50 mM sodium phosphate buffer, pH 7.0, containing 100 mM sodium chloride. The protein concentration was 50-100 nM. Excitation was at 280 nm. The quenching in fluorescence intensity at 341 nm caused by maltose was used in Eadie-Hofstee equivalent plots to determine Kd using the following equation:\n(§4) [formula] where ΔF is the change in fluorescence intensity, ΔFmax is the difference in fluorescence between no maltose and saturating amounts of maltose and [L] is the maltose concentration. The fluorescence quenching of RG13(1329W/A96W) upon addition of maltose was insufficient to accurately determine a Kd by this method. The dissociation constant for maltose and RG13(I329W) in the presence of saturating carbenicillin (2 mM) was determined by measuring the initial rate of carbenicillin hydrolysis as a function of maltose concentration. The apparent dissociation constant in the presence of subsaturating concentrations of nitrocefin (25 μM) for all three proteins was determined by measuring the initial rate of nitrocefin hydrolysis as a function of maltose concentration."}, "[6]": {"assay": "Apparent dissociation constant for maltose from initial rate of nitrocefin hydrolysis", "format": "binding", "conditions": "25° C.", "protocol": "as §4"}, "[7]": {"assay": "Carbenicillin hydrolysis by purified RG13, 25° C.", "format": "biochemical", "conditions": "50 μM carbenicillin", "protocol": "as §1"}, "[8]": {"assay": "Hydrolysis of ampicillin by RG-200-13 with and without 5 mM maltose", "format": "biochemical", "conditions": "pH 7.0, 22° C.", "protocol": "as §2, §3"}, "[9]": {"assay": "Spectrophotometric nitrocefin hydrolysis assay of purified RG-200-13, 22° C.", "format": "biochemical", "conditions": "for Change in velocity of nitrocefin hydrolysis in presence of sugar: 50 μM nitrocefin; for Change in velocity of nitrocefin hydrolysis in presence of sugar / Km / kcat: pH 7.0, 22° C.", "protocol": "as §2"}, "[10]": {"conditions": "effector maltose 5 mM (saturating)"}, "[11]": {"conditions": "effector maltose 5 mM (saturating), nitrocefin, 25° C."}, "[12]": {"conditions": "effector β-cyclodextrin 5 mM, nitrocefin, 25° C."}, "[13]": {"conditions": "no effector, nitrocefin, pH 7.0, 25° C."}}, "note": "Where “and” joins values, the source holds several entries; their conditions need not be identical. Equal entries are not always repeated."}
{"substance": "RG13: MBP-BLA fusion switch MBP[1-316]-BLA[227-286]-GSGGG-BLA[24-226]-S-MBP[319-370]; SEQ ID NO: 61", "values": [{"measurement": "Rate increase with maltose", "setting": "[1]", "result": 16, "unit": "fold"}, {"measurement": "Approximate fold increase in velocity of benzylpenicillin hydrolysis in the presence of 5 mM maltose", "setting": "[2]; substrate benzylpenicillin 100 μM", "result": "~17", "unit": "fold"}, {"measurement": "Approximate fold increase in velocity of benzylpenicillin hydrolysis in the presence of 5 mM maltose", "setting": "[2]; substrate benzylpenicillin 500 μM", "result": "~7", "unit": "fold"}, {"measurement": "Increase in the reaction rate on addition of subsaturating maltose", "setting": "[3]; 20 μM nitrocefin, 2.5 nM RG13, 2 ml, 20 μl of 1 M maltose added (FIG. 7B)", "result": 10, "unit": "fold"}, {"measurement": "Km Ratio (with effector)/(without effector)", "setting": "[3]; effector maltose 5 mM", "result": "0.12 ± 0.03"}, {"measurement": "kcat Ratio (with effector)/(without effector)", "setting": "[3]; [10]", "result": "3 and 3.1 ± 0.6"}, {"measurement": "kcat/Km Ratio (with effector)/(without effector)", "setting": "[3]; [10]", "result": "25 and 25 ± 7"}, {"measurement": "Km", "setting": "[3]; [11]", "result": "68 ± 4", "unit": "µM"}, {"measurement": "kcat", "setting": "[3]; [11]", "result": "620 ± 60 s⁻¹ and 620 ± 30 s⁻¹"}, {"measurement": "Km Ratio (with effector)/(without effector)", "setting": "[3]; effector β-cyclodextrin 5 mM", "result": "1.6 ± 0.4"}, {"measurement": "kcat Ratio (with effector)/(without effector)", "setting": "[3]; effector β-cyclodextrin 5 mM", "result": "2.9 ± 0.6"}, {"measurement": "kcat/Km Ratio (with effector)/(without effector)", "setting": "[3]; effector β-cyclodextrin 5 mM", "result": "1.8 ± 0.6"}, {"measurement": "Km", "setting": "[3]; [12]", "result": "870 ± 90", "unit": "µM"}, {"measurement": "kcat", "setting": "[3]; [12]", "result": "590 ± 60", "unit": "s⁻¹"}, {"measurement": "Decrease of Km with saturating amounts of maltose", "setting": "[3]; nitrocefin, 25° C.", "result": 8, "unit": "fold"}, {"measurement": "Km", "setting": "[3]; [13]", "result": "550 ± 120", "unit": "µM"}, {"measurement": "kcat", "setting": "[3]; [13]", "result": "200 ± 40", "unit": "s⁻¹"}, {"measurement": "Effect of non-ligands on rate of nitrocefin hydrolysis", "setting": "[3]; sucrose, lactose and galactose 5 mM, 20 μM nitrocefin (FIG. 7A)", "result": "no effect"}, {"measurement": "Increase in the rate of nitrocefin hydrolysis upon addition of ligand", "setting": "[3]; β-cyclodextrin 5 mM, 20 μM nitrocefin (FIG. 7A)", "result": 2, "unit": "fold"}, {"measurement": "Kd", "setting": "[4]", "result": "0.9 ± 0.1", "unit": "µM"}, {"measurement": "Kd", "setting": "[5]; 10 mM carbenicillin, 25° C., read-out: Kd maltose, Saturating Carbenicillin, IPF", "result": "1.3 ± 0.5", "unit": "µM"}, {"measurement": "Kd", "setting": "[5]; intrinsic protein fluorescence, 100 mM NaCl, 50 mM NaPO4, pH 7.0, 25° C., read-out: Kd maltose, No Substrate", "result": "5.5 µM and 5 to 6 µM"}, {"measurement": "Kd", "setting": "[5]; text of Example 3, read-out: Dissociation constant for maltose in the presence of saturating amounts of carbenicillin", "result": "~1", "unit": "µM"}, {"measurement": "Kd", "setting": "[6]", "result": "6.7 ± 0.03", "unit": "µM"}, {"measurement": "Rate increase with maltose", "setting": "[7]", "result": 12, "unit": "fold"}, {"measurement": "Approximate fold increase in velocity of ampicillin hydrolysis in the presence of 5 mM maltose", "setting": "[8]; substrate ampicillin 100 μM", "result": "~26", "unit": "fold"}, {"measurement": "Approximate fold increase in velocity of ampicillin hydrolysis in the presence of 5 mM maltose", "setting": "[8]; substrate ampicillin 500 μM", "result": "~10", "unit": "fold"}, {"measurement": "Change in velocity of nitrocefin hydrolysis in presence of sugar", "setting": "[9]; Galactose 5 mM", "result": "−3", "unit": "%"}, {"measurement": "Change in velocity of nitrocefin hydrolysis in presence of sugar", "setting": "[9]; Lactose 5 mM", "result": "−4", "unit": "%"}, {"measurement": "Change in velocity of nitrocefin hydrolysis in presence of sugar", "setting": "[9]; Maltose 5 mM", "result": "+1800%"}, {"measurement": "Change in velocity of nitrocefin hydrolysis in presence of sugar", "setting": "[9]; Maltotetraitol 5 mM", "result": "+400%"}, {"measurement": "Change in velocity of nitrocefin hydrolysis in presence of sugar", "setting": "[9]; Maltotriose 5 mM", "result": "+1700%"}, {"measurement": "Change in velocity of nitrocefin hydrolysis in presence of sugar", "setting": "[9]; Sucrose 5 mM", "result": "−5", "unit": "%"}, {"measurement": "Km", "setting": "[9]; nitrocefin, 5 mM maltose", "result": "~85", "unit": "µM"}, {"measurement": "kcat", "setting": "[9]; nitrocefin, 5 mM maltose, listed as RG-200-13", "result": "~520", "unit": "s⁻¹"}, {"measurement": "Km Ratio (with maltose)/(without maltose)", "setting": "[9]; nitrocefin, 22° C.", "result": "~0.26"}, {"measurement": "kcat Ratio (with maltose)/(without maltose)", "setting": "[9]; nitrocefin, 22° C.", "result": "~6.5"}, {"measurement": "Km", "setting": "[9]; nitrocefin, no maltose", "result": "~325", "unit": "µM"}, {"measurement": "kcat", "setting": "[9]; nitrocefin, no maltose", "result": "~80", "unit": "s⁻¹"}, {"measurement": "Change in velocity of nitrocefin hydrolysis in presence of sugar", "setting": "[9]; β-cyclodextrin 3 mM", "result": "+150%"}]}
